Measurements from patent US11578072B2, “Spiro-lactam NMDA receptor modulators and uses thereof” (Aptinyx Inc., priority 2018, dated 2023).

Tests used:
NMDAR2A = biological target: T1, NMDAR2A (Homo sapiens, UniProt Q12879); experiment: NMDAR agonist assay, [3H]MK-801 binding, NMDAR2A expressing HEK cell membranes; format: biochemical; conditions: 50 μM glutamate
T1 construct: expressed in transfected cells; host or cells: HEK cells (membrane extract)
Method: (§1) Assays were conducted as described by Moskal et al., “GLYX-13: a monoclonal antibody-derived peptide that acts as an N-methyl-D-aspartate receptor modulator,” Neuropharmacology, 49, 1077-87, 2005. These studies were designed to determine if the test compounds act to facilitate NMDAR activation in NMDAR2A, NMDAR2B, NMDAR2C or NMDAR2D expressing HEK cell membranes as measured by increases in [3H]MK-801 binding.
(§2) In the assay, 300 μg of NMDAR expressing HEK cell membrane extract protein was preincubated for 15 minutes at 25° C. in the presence of saturating concentrations of glutamate (50 μM) and varying concentrations of test compound (1×10^−15M-1×10^−7M), or 1 mM glycine. Following the addition of 0.3 μCi of [3H]MK-801 (22.5 Ci/mmol), reactions were again incubated for 15 minutes at 25° C. (nonequilibrium conditions). Bound and free [3H]MK-801 were separated via rapid filtration using a Brandel apparatus.
(§3) In analyzing the data, the DPM (disintegrations per minute) of [3H]MK-801 remaining on the filter were measured for each concentration of test compound or for 1 mM glycine. The DPM values for each concentration of a ligand (N=2) were averaged. The baseline value was determined from the best fit curve of the DPM values modeled using the GraphPad program and the log(agonist) vs. response(three parameters) algorithm was then subtracted from all points in the dataset. The % maximal [3H]MK-801 binding was then calculated relative to that of 1 mM glycine: all baseline subtracted DPM values were divided by the average value for 1 mM glycine. The EC50 and % maximal activity were then obtained from the best fit curve of the % maximal [3H]MK-801 binding data modelled using the GraphPad program and the log(agonist) vs. response(three parameters) algorithm.
(§4) The tables below summarize the results for the wild type NMDAR agonists NMDAR2A, NMDAR2B, NMDAR2C, and NMDAR2D, and whether the compound is not an agonist (−), is an agonist (+), or is a strong agonist (++), where column A is based on the % maximal [3H]MK-801 binding relative to 1 mM glycine (−=0; <100%=+; and >100%=++); and column B is based on log EC50 values (0=−; >1×10^−9 M (e.g., −8)=+; and <1×10^−9 M (e.g., −10)++).

NMDAR2C = biological target: T2, NMDAR2C (Homo sapiens, UniProt Q14957); experiment: NMDAR agonist assay, [3H]MK-801 binding, NMDAR2C expressing HEK cell membranes; format: biochemical; conditions: 50 μM glutamate
T2 construct: expressed in transfected cells; host or cells: HEK cells (membrane extract)
Method: as §1
as §2, with “Bound and free [3H]MK-801 were separated via rapid filtration using a Brandel apparatus.” left out
as §3, with “The DPM values for each concentration of a ligand (N=2) were averaged.” left out, “The EC50 and % maximal activity were then obtained from the best fit curve of the % maximal [3H]MK-801 binding data modelled using the GraphPad program and the log(agonist) vs. response(three parameters) algorithm.” left out

NMDAR2D [1] = biological target: T3, NMDAR2D (Homo sapiens, UniProt O15399); experiment: NMDAR agonist assay, [3H]MK-801 binding, NMDAR2D expressing HEK cell membranes; format: biochemical; conditions: 50 μM glutamate
T3 construct: expressed in transfected cells; host or cells: HEK cells (membrane extract)
Method: as §1, §2, §3, §4

NMDAR2D [2] = biological target: T4, NMDAR2D (Homo sapiens, UniProt O15399+Q05586); experiment: as above; format: biochemical; conditions: 50 μM glutamate, read-out: NMDAR2D B: log EC50 (converted)
T4 construct: expressed in transfected cells; host or cells: HEK cells (membrane extract)
Method: as §1, §2, §3, §4

[3] = Microsomal stability (Human); format: in vitro ADME; conditions: human microsomes, after 60 minutes
Method: Microsomal stability of disclosed compounds was investigated. The following table indicates the percent of compound remaining after 60 minutes.

Sprague Dawley rats = experiment: Bennett nerve injury assay (mechanical analgesia, paw withdrawal threshold); format: in vivo
Method: The Bennett model of mechanical analgesia is used to assess the analgesic effects of compounds as measured by paw withdrawal threshold. Bennett G J, Xie Y K, “A peripheral mononeuropathy in rat that produces disorders of pain sensation like those seen in man,” Pain 33:87-107, 1988. […] Vehicle animals receive the surgery and then receive vehicle rather than test compound. Animals were tested 1 hr, 24 h and 1 wk post-test compound or vehicle administration.
Male 2-3 month old Sprague Dawley rats were used. Harlan was the supplier for all studies. Rats were housed in Lucite cages with aspen wood chip bedding, maintained on a 12:12 light:dark cycle (lights on at 5 AM), and given ad libitum access to Purina lab chow (USA) and tap water throughout the study.
Rats were anesthetized using inhaled isoflurane (2.5%). Sciatic nerve chronic constriction nerve injury surgery was performed as previously described (Bennett and Xie, 1988). An incision (˜1.5 cm in length) was made with a scalpel blade dorsally through skin on the right hind limb, parallel and posterior to femur. Using a small pointed hemostat, the biceps femoris and gluteus superficialis muscles were separated. Using curved blunt forceps, the common sciatic nerve was isolated and exposed. For the mechanical analgesia studies, the whole sciatic nerve was ligated. Using hemostats/forceps and chromic gut (5-0), the nerve was loosely ligated with a square knot; 3 ligatures, 1 mm apart were placed on the nerve. […] Testing occurred approximately 2 weeks post-surgery.
During testing, rats were acclimated to the surface of a suspended wire mesh grid (1 cm×1 cm, with the wire being 0.3 cm in diameter) for 15-20 min. Starting from the smallest, each Von Frey filament was pressed perpendicularly to the plantar surface of the affected (ipsilateral) hind paw until slightly bent and then held for 6 second. If an obvious hind paw withdrawal or a flinching behavior immediately after the withdrawal of the filament was not observed, the next larger filament was used in the same manner. In case of a response, a lower filament was used. This was repeated until six responses were collected.
For all studies, animals were baselined prior to study start to test for allodynia (defined as a paw withdrawal threshold under 5). A subset of animals was tested with gabapentin (150 mg/kg, PO) to ensure at least 50% analgesia. Once it was confirmed animals were ready for study initiation, animals were balanced across groups. All study investigators were blind to treatment conditions. Animals were dosed with 0.1, 1 or 10 mg/kg of test compound via oral gavage (PO), control sets of animals were dosed with gabapentin (150 mg/kg, PO) or vehicle (0.5% Na-CMC in 0.9% sterile saline, PO). Testing occurred 1 h post-dosing with animals retested 24 hrs and 1 week post-dosing. The percent analgesia calculations for each animal were made using the following equation: % analgesia=[(log(x)−y)/((log (z)−y)]*100, where x=the paw withdrawal threshold for the drug-treated animal in grams, y=the average of the log(x) values for the vehicle treated group, and z=the paw withdrawal threshold for naïve animals in grams (historical value of 15 used). The results for Compound AD, where the percentage of analgesia is measured at 1 hour, 24 hours, and 1 week after compound administration are as follows: for 0.1 mg/kg dose: 38.7% at 1 h, 34.5% at 24 h, and 19.7% at 1 wk; for 1 mg/kg dose: 24.1% at 1 h, 26.5% at 24 h, and 13.2% at 1 wk; and for 10 mg/kg dose: 61.2% at 1 h, 45.1% at 24 h, and 39.5% at 1 wk.

T1 sequence (Q12879 23-1464, species assumed, other chains not shown): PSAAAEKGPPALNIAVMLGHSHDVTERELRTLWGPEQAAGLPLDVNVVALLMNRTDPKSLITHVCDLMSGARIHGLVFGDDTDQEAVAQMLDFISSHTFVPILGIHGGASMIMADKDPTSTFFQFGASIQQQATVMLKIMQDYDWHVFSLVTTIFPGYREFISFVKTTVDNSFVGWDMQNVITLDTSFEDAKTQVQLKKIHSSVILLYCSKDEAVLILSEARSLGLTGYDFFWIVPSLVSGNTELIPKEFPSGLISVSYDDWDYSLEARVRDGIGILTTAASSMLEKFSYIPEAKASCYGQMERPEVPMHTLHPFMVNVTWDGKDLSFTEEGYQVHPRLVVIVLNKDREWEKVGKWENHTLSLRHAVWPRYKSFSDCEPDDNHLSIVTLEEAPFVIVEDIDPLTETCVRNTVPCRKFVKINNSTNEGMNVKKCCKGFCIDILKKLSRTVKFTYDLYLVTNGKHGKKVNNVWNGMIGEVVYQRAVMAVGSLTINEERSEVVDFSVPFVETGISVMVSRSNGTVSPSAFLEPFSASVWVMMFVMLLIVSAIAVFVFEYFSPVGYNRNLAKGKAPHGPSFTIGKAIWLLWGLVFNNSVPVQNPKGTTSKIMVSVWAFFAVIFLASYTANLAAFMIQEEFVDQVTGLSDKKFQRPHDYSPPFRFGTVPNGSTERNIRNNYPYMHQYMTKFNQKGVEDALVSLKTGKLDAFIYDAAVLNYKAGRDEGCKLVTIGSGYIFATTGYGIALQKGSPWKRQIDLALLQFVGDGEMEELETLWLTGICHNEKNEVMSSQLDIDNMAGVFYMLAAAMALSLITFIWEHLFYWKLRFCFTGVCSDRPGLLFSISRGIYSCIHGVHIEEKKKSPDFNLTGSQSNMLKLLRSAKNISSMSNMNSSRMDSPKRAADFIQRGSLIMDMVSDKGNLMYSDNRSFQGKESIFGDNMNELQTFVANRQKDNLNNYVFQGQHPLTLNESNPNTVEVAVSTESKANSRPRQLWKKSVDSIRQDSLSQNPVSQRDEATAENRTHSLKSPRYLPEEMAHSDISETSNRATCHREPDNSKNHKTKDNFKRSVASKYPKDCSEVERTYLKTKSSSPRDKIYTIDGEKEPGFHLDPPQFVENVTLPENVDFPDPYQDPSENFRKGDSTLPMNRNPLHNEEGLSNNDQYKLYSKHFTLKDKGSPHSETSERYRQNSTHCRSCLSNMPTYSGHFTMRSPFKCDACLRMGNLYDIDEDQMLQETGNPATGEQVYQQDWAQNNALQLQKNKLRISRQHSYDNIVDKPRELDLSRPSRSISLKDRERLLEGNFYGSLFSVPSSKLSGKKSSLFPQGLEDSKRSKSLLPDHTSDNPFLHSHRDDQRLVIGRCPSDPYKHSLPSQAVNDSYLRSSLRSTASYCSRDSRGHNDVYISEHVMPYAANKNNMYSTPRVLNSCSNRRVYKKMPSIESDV
T2 sequence (Q14957 20-1233, species assumed, other chains not shown): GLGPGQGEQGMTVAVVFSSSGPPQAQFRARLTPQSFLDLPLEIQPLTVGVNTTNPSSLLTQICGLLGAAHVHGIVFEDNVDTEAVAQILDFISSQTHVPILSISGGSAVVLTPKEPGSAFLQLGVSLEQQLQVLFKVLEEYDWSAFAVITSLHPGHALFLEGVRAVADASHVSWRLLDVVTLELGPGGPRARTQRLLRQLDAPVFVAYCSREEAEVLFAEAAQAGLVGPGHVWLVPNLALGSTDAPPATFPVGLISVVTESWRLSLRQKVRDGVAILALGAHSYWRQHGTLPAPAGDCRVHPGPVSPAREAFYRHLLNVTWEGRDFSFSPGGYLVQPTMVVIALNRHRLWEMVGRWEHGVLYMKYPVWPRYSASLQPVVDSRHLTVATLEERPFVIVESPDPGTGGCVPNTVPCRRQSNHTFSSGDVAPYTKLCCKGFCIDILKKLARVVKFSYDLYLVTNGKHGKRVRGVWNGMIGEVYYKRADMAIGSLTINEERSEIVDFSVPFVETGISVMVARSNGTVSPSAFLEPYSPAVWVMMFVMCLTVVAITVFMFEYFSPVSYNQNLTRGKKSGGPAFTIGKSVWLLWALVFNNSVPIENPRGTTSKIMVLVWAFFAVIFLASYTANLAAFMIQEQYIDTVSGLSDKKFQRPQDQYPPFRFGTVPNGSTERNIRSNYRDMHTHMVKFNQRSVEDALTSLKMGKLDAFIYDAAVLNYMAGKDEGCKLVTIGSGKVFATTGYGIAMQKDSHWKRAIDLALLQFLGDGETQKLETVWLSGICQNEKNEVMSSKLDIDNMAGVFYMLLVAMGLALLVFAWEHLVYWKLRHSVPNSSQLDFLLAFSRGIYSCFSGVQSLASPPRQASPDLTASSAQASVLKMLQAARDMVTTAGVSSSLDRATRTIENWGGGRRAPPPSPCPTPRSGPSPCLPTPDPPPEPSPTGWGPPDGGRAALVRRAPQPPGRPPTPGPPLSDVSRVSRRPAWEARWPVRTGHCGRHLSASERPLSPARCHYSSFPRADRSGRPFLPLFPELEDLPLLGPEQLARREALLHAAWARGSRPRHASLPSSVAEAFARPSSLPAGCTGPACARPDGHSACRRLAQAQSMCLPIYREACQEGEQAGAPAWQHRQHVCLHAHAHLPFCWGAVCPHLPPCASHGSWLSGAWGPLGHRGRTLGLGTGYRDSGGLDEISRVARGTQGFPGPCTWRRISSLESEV
T3 sequence (O15399 28-1336, species assumed, other chains not shown): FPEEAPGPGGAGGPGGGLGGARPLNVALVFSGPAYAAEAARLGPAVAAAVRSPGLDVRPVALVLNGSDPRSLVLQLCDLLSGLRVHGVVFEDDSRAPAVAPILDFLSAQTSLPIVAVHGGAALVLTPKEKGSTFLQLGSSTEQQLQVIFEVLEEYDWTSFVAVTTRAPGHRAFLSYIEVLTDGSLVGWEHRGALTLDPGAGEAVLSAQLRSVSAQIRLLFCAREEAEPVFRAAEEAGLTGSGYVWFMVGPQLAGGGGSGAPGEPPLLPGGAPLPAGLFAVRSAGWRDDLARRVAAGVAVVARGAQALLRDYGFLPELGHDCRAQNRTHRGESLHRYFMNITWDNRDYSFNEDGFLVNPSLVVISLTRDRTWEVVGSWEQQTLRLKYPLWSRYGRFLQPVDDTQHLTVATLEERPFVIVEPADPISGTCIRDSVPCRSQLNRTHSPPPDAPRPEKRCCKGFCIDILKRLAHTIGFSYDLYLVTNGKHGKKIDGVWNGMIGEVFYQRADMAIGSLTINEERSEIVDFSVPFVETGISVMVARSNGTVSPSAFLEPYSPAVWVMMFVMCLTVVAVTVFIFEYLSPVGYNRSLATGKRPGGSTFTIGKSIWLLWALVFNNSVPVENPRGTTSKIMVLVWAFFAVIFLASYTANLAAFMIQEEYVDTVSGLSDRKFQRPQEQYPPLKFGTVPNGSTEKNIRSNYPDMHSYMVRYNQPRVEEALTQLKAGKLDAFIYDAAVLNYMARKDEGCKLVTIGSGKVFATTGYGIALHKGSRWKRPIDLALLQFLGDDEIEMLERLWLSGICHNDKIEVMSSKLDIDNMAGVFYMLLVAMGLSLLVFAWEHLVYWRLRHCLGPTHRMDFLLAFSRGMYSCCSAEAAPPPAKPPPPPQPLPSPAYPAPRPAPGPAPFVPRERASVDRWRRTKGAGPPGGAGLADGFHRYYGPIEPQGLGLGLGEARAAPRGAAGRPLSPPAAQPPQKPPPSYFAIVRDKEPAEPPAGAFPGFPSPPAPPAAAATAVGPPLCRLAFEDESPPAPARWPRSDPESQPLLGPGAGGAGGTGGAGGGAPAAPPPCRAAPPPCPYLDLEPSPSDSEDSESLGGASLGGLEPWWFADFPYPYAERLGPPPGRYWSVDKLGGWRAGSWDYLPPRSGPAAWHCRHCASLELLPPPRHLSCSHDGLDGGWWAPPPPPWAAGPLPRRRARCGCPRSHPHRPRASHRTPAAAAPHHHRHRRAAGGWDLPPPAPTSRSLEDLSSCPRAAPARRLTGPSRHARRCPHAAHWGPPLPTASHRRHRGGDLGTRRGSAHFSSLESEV
T4 sequence (O15399 28-1336, species assumed, other chains not shown): as above

NMDAR2A A: % maximal [3H]MK-801 binding relative to 1 mM glycine (NMDAR2A): + (<100%=+) | EC50 (NMDAR2A; read-out: NMDAR2A B: log EC50 (converted)): < 1 nM | NMDAR2C A: % maximal [3H]MK-801 binding relative to 1 mM glycine (NMDAR2C): + (<100%=+) | EC50 (NMDAR2C; read-out: NMDAR2C B: log EC50 (converted)): < 1 nM | NMDAR2D A: % maximal [3H]MK-801 binding relative to 1 mM glycine (NMDAR2D [1]): + (<100%=+) | EC50 (NMDAR2D [2]): < 1 nM | Microsomal (Human): percent of compound remaining [3]: 100%
SMILES: CC(C)C(=O)N1CCC2(CCCNC2=O)CC1 [Compound AD, 9-isobutyryl-2,9-diazaspiro[5.5]undecan-1-one]
% analgesia (Sprague Dawley rats; 0.1 mg/kg PO, 1 wk): 19.7% | % analgesia (Sprague Dawley rats; 0.1 mg/kg PO, 1 h): 38.7% | % analgesia (Sprague Dawley rats; 0.1 mg/kg PO, 24 h): 34.5% | % analgesia (Sprague Dawley rats; 1 mg/kg PO, 1 wk): 13.2% | % analgesia (Sprague Dawley rats; 1 mg/kg PO, 1 h): 24.1% | % analgesia (Sprague Dawley rats; 1 mg/kg PO, 24 h): 26.5% | % analgesia (Sprague Dawley rats; 10 mg/kg PO, 1 wk): 39.5% | % analgesia (Sprague Dawley rats; 10 mg/kg PO, 1 h): 61.2% | % analgesia (Sprague Dawley rats; 10 mg/kg PO, 24 h): 45.1%
